Data as given in ChEMBL document CHEMBL1201862, “PubChem BioAssay data set” (2004).
Active and inactive are the calls of the source.

Key:
[1] = biological target: Cytochrome P450 2D6 (Homo sapiens, UniProt P10635);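 note: CYP2D6 member of a cytochrome P450 panel assay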
[2] = biological target: T1, Cytochrome P450 1A2 (Homo sapiens, UniProt P05177);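 note: PubChem cytochrome P450 panel assay, CYP1A2 panel member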
T1 sequence (P05177 whole entry): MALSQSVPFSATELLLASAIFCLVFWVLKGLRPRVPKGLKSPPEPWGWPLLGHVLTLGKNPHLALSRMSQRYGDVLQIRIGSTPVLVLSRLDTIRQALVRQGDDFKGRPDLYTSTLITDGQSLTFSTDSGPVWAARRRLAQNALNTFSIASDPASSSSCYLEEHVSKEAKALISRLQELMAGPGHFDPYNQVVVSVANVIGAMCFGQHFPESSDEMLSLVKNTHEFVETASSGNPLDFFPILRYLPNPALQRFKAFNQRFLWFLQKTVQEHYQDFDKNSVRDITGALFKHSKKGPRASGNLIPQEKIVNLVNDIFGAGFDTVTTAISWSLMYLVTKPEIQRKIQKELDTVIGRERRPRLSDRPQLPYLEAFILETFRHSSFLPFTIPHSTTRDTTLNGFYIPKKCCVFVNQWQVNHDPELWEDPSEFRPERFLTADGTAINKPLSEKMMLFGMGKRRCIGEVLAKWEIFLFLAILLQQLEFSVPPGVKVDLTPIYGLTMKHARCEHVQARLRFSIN

[3] = biological target: Cytochrome P450 2C19 (Homo sapiens, UniProt P33261); experiment: Cytochrome panel assay with activity outcomes. Panel member name: p450-cyp2c19 Compounds with AC50 equal or less than 10 uM are considered active; assay type: functional
[4] = biological target: Cytochrome P450 2C9 (Homo sapiens, UniProt P11712)
[5] = test system: HEK293; experiment: NOD1 signaling inhibitors, primary screen, cell-based, luminescence, uHTS (AID 1578); assay type: functional; conditions: Homo sapiens
[6] = test system: HEK293; experiment: NOD2 signaling inhibitors in MDP-stimulated cells, cell-based, uHTS, luminescence (AID 2001); assay type: functional; conditions: Homo sapiens
[7] = test system: BJ; experiment: cells; assay type: functional, cell-based; conditions: Homo sapiens
[8] = inhibitors of SNCA 5'UTR-driven reporter translation, confirmation, H4 neuroglioma cells, luminescence (AID 1988); assay type: functional, cell-based
[9] = cytotoxicity toward DRD oncogenic fibroblasts, dose response, cell-based, non-viral oncogenic, luminescence (AID 1934); assay type: functional; conditions: Homo sapiens
[10] = inhibitors of firefly luciferase expression or activity, dose response, H4 neuroglioma cells, luminescence (AID 1990); assay type: functional, cell-based
[11] = test system: BJ; experiment: cytotoxicity toward BJ-TERT fibroblasts, dose response, cell-based, RAS-independent, luminescence (AID 1933); assay type: functional; conditions: Homo sapiens
[12] = test system: HEK293; experiment: cells; assay type: functional, cell-based; conditions: Homo sapiens
[13] = biological target: Nucleotide-binding oligomerization domain-containing protein 2 (Homo sapiens, UniProt Q9HC29); experiment: NOD2 signaling inhibitors, cell-based, luminescence, uHTS, HEK293 (AID 1566); assay type: functional
[14] = test system: HEK293; experiment: cells; assay type: functional, cell-based; conditions: Homo sapiens; remark: listed apart in the source
[15] = Luminescence Cell-Based Dose Response HTS to Identify Inhibitors of 5'UTR Stem-Loop Driven Prion Protein mRNA Translation in H4 Neuroglioblastoma Cells. [Related pubchem assays: 1827 (Project Summary), 1813 (Primary HTS)]; assay type: functional
[16] = test system: HEK293; experiment: cells; assay type: functional, cell-based; conditions: Homo sapiens; remark: listed apart in the source
[17] = test system: HEK293; experiment: cells; conditions: Homo sapiens
[18] = test system: HEK293; experiment: cells; conditions: Homo sapiens; remark: listed apart in the source
[19] = biological target: Cytochrome P450 3A4 (Homo sapiens, UniProt P08684);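 note: CYP3A4 tested as one member of a cytochrome P450 panel screen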
[20] = Luminescence Cell-Based Dose Confirmation HTS to Identify Inhibitors of Platelet Dense Granule Release. [Related pubchem assays: 1663 (Primary HTS), 1678 (Summary of Project)]; assay type: functional
[21] = non-specific cell cytotoxicity, dose response, cytotoxicity control for PAX8 inhibitor project, plate reader, dry powder samples (AID 743021); assay type: functional, cell-based
[22] = biological target: Troponin, cardiac muscle (Homo sapiens, UniProt P19429+P45379+P63316); experiment: Fluorescence-based biochemical high throughput dose response assay for activators of the calcium sensitivity of cardiac Regulated Thin Filaments (RTF). [Related pubchem assays (depositor defined):AID493008, AID493018, AID504382, AID504383]; assay type: protein-complex assay
[23] = biological target: T2, Rac GTPase-activating protein 1 (Homo sapiens, UniProt Q9H0H5); experiment: MgcRacGAP GTPase-activating activity inhibitors, confirmation, biochemical, ADP Hunter fluorescence, primary and confirmatory (AID 624330); assay type: functional
T2 sequence (Q9H0H5 whole entry): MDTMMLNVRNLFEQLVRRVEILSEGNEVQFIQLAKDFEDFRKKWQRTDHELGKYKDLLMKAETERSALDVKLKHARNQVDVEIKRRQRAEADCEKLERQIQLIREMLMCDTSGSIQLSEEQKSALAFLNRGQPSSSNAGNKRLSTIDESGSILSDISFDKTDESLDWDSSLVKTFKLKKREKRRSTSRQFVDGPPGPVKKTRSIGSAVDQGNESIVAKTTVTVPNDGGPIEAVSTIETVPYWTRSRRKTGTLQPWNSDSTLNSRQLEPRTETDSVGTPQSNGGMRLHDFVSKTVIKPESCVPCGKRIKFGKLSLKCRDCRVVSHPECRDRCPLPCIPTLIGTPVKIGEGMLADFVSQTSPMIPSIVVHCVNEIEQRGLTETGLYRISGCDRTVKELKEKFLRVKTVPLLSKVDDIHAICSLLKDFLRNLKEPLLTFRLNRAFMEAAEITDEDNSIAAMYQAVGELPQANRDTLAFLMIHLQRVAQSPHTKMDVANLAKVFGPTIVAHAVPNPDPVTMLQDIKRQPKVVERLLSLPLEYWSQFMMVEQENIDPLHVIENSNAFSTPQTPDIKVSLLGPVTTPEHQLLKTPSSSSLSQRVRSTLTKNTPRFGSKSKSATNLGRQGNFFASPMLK

[24] = biological target: Glucose-6-phosphate 1-dehydrogenase (Homo sapiens, UniProt P11413); experiment: human G6PD enzyme inhibitors, dose response, selectivity assay for P. falciparum G6PD inhibitor project, biochemical, fluorescence (AID 504792); assay type: functional
[25] = biological target: T3, Estrogen receptor (Homo sapiens, UniProt P03372);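 note: potency for inhibiting coactivator peptide recruitment to the receptor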
T3 sequence (P03372 whole entry): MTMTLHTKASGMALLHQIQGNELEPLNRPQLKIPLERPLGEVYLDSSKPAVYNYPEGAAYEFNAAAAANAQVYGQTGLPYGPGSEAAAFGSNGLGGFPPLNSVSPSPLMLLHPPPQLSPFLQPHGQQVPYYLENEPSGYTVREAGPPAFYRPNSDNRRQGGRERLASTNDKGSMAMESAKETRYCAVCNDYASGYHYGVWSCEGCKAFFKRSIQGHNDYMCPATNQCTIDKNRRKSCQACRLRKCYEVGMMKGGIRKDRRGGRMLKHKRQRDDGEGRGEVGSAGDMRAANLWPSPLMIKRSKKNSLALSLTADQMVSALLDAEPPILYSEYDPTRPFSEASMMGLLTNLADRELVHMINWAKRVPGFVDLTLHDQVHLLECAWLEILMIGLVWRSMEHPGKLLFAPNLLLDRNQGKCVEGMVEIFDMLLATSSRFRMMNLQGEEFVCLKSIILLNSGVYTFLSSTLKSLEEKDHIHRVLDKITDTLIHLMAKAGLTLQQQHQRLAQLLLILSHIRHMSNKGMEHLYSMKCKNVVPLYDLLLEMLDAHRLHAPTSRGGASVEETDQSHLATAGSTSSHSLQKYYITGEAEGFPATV

[26] = insulin promoter down-regulators in MIN6 cells, imaging, high-content screening, mouse beta cells (AID 1628); assay type: functional
[27] = cytotoxicity in MIN6 insulinoma cells, dose response, cytotoxicity control, cell-based, mouse insulinoma (AID 2122); assay type: functional;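 note: confirmatory high-throughput counterscreen run to flag cytotoxic compounds; mouse MIN-6 beta cells carrying an insulin promoter eGFP reporter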

## CCCCCCCCCC[Si](C)(C)CCC(=O)N[C@@H](Cc1ccc(C)cc1)c1ccccc1
[1]
  AC50: 39.8 µM (inconclusive)
[2]
  AC50: 31.6 µM (inconclusive)
[3]
  AC50: inconclusive
[4]
  AC50: inconclusive

## O=C1C=C(c2ccccc2)C[C@H](c2cccs2)[C@H]1n1nnc([N+](=O)[O-])n1
[5]
  EC50: 9.57 µM (active)
[6]
  IC50: 9.37 µM (active)
[7]
  EC50: 1.11 µM (active)
[8]
  EC50: 9.23 µM (active)
[9]
  EC50: 0.668 µM (active)
[10]
  EC50: 6.52 µM (active)
[11]
  EC50: 0.681 µM (active)
[12]
  IC50: > 20 µM (inactive)
[13]
  EC50: 11 µM (active)
[14]
  IC50: > 20 µM (inactive)
[15]
  EC50: 17.5 µM (active)
[16]
  IC50: > 20 µM (inactive)

## CCCC(C)Sc1nc2c(=S)n(C)c(=O)n(C)c2[nH]1 (stereo unspecified)
[17]
  EC50: > 59.7 µM (inactive)
[18]
  EC50: > 59.7 µM (inactive)

## Cn1c(=O)c(-c2cccc(C#N)c2)nc2cnc(Oc3ccccc3)nc21
[19]
  AC50: inconclusive

## COc1ccc(N(Cc2cc3cc(OC)ccc3nc2O)S(=O)(=O)c2ccc(NC(C)=O)cc2)cc1
[5]
  EC50: > 20 µM (inactive)
[6]
  IC50: > 20 µM (inactive)
[12]
  IC50: 7.22 µM (active)
[14]
  IC50: > 20 µM (inactive)
[20]
  EC50: > 112 µM (not active)
[21]
  AC50: 49.1 µM (active)
[16]
  IC50: > 20 µM (inactive)

## C/C(NN1CCCCC1c1cccnc1)=C1/C(=O)NC(=S)N(C2CCCCC2)C1=O (stereo unspecified)
[17]
  EC50: > 59.6 µM (inactive)
[22]
  EC50: 14.9 µM (inactive)
[18]
  EC50: > 59.6 µM (inactive)

## CC1CCCC(C)N1C(=O)c1cc(-c2ccc(Cl)c(Cl)c2)on1 (stereo unspecified)
[4]
  AC50: inconclusive

## COc1cc(N)c2ncccc2c1SC
[23]
  IC50: 41.3 µM (active)
[24]
  IC50: > 80 µM (inactive)

## O=C1CC(c2ccc(F)cc2)Cc2nc(NCC3CCCO3)ncc21 (stereo unspecified)
[19]
  AC50: inconclusive
[25]
  IC50: > 50 µM (not active)

## c1ccc2c3nc[nH]c(N4CCCC4)c-3nc2c1
[26]
  IC50: 3.72 µM (active)
[27]
  IC50: 3.1 µM (active)
